From US20240108634A1, “COMPOSITIONS AND METHODS FOR INHIBITING YAP” (The United States Government as represented by the …, priority 2021, published 2024) come the findings set out here.

Data set [1] can be described thus: Toxicity in treated mice (weight, blood cell counts, ALT, AST, creatinine). Type of data set: in vivo. The source says: Data are expressed as percent of control mice that received vehicle and assigned 100%.
Materials and Methods. Cell culture, vectors and reagents. Normal mature human neurons were obtained from ScienCell (Carlsbad, CA). Lines were routinely tested to confirm the absence of mycoplasma and authenticated by short tandem repeat profiling (ATCC). The myc-tagged TEAD (pRK5-Myc-TEAD1) and HA-tagged YAP1 (pCl-HA-YAP) vectors were used for mammalian expression and TEAD was subcloned into pGEX-2TK, while YAP was subcloned into pET-14b for bacterial expression and purification. DNA transfections were performed using Effectene transfection reagent according to the manufacturer (QIAGEN) and lentiviral transductions were performed as previously described (Rosenbluh J, et al. (2012) Cell 151: 1457-1473). Large-scale syntheses of NSC682769 was performed by New England Discovery Partners, Branford, CT. The other reagents including kits for ALT, AST and creatinine level determinations were from Sigma-Aldrich.
NSC682769 inhibits GBM tumor growth in xenografted mice. To examine the effects of NSC682769 in vivo, the ability of the compound to inhibit the growth of LN229 xenografted tumors implanted subcutaneously in SCID mice was tested. Following implantation, when tumors reached ˜200 mm^3, mice were randomized into treatment groups receiving vehicle, 5 mg/kg/d and 20 mg/kg/d of NSC682769. […]

The test system of data set [2] is YAP-TEAD transcriptional activity. The data set can be described thus: HOP-flash TEAD binding site luciferase reporter. Type of data set: cell-based, human. The following applies: LN229 or GBM39 cells, 18 h. How it is done: Levels of total YAP were determined via ELISA. […] Immunoprecipitates were immunoblotted for the indicated proteins. […] Cells were treated with the indicated concentrations of inhibitor for 18 h and mRNA extracted for real time RT-PCR analyses. Measurements were performed in quadruplicate and means and+S.D. are shown. […] Cells were treated with (+) or without (−) NSC682769 (100 nM, 18 h) and harvested and separated into cytoplasmic and nuclear cellular fractions. Cytoplasmic versus nuclear material was subsequently immunoblotted for the indicated proteins. […] Values in top right corner of panels correspond to the percentage of nuclear localized YAP. Cells were grown on coverslips and treated with NSC682769. Cells were permeabilized and stained using primary antibody to YAP1 and FITC-conjugated secondary. Nuclei were stained with DAPI. Scale bar, 20 μm.
Surface plasmon resonance (SPR), ELISA, YAP-TEAD reporter activity, cellular fractionation, and immunofluorescence analyses. SPR experiments were carried out on a Nicoya OpenSPR™ instrument using immobilized YAP on a carboxyl-coated sensor. […] YAP-TEAD reporter activity was determined as previously described (Kim N G, Gumbiner B M (2015) J Cell Biol 210: 503-515). […] Luciferase activity was measured via a luciferase assay system (Promega). […] Cell lysis was monitored by trypan blue staining. […]
(Reporter assays use an easily measured gene product as a stand-in for the process of interest.)

Turning to `COc1ccc(-c2cc(-c3ccccc3)nc3c2CC(=O)Nc2ccccc2-3)cc1OC` [NSC682769], the “Overt toxicity or weight loss” value in data set [1] (5 and 20 mg/kg/d) is reported as “No overt short or long-term toxicity or weight loss”. The “Blood cell counts, serum ALT, AST, creatinine” value in data set [1] (daily IP, 5 days, 5 or 20 mg/kg/d) is recorded as “neither blood cell counts nor serum alanine aminotransferase (ALT), aspartate aminotransferase (AST) or creatinine levels were affected”. The “YAP-TEAD transcriptional activity (luciferase)” value in data set [2] is on record as “markedly reduced”.
